The IC50 is the midpoint of a concentration-inhibition curve.

Molecules are shown by their SMILES. Bounds are passed on as bounds.

Experiment [1] concerns Spectrin Breakdown in Human Leukemic Molt-4 cells. The experiment in a line: Cell-based calpain assay: spectrin breakdown in Molt-4 cells treated with calcium ionophore A23187. Conditions: 1 hour preincubation, 15 μM A23187, 90 minutes, read-out: IC50 for inhibition of spectrin breakdown (145 kD fragment formation). How it is done:
Calpain inhibitor was added to the wells if desired and preincubated for 1 hour. […] The cells were then lysed with 2% (w/v) SDS, 5 mM EGTA, 5 mM EDTA, 150 mM NaCl, 0.5 mM PMSF, 10 μg/mL AEBSF, 5 μg/mL leupeptin, 10 μg/mL pepstatin, 10 μg/mL TLCK, 10 μg/mL TPCK, and 20 mM Tris-HCl (pH 7.4) at room temperature for 5 to 10 minutes. One hundred microliters of 100% (w/v) TCA was added and total protein precipitate was collected by microcentrifugation. The final pellets were neutralized with Tris base. Protein samples (50 μg) were run on SDS-PAGE with the Tris-glycine running buffer system and transferred onto a PVDF membrane. The blots were probed with an anti-spectrin (nonerythroid) antibody and a second antibody with alkaline phosphatase conjugate. The blots were developed with nitro blue tetrazolium and 5-bromo-4-chloro-3-indolyl-phosphate.

The target of the next experiment is T1, Calmodulin-calcineurin (Bos taurus, UniProt P48452).
T1 construct: purchased Sigma; host or cells: bovine brain
Put plainly: Calmodulin-calcineurin assay (p-nitrophenyl phosphate). Format: biochemical, bovine. Conditions: pH 7.4, 25° C., 60 minutes or more. How it is done:
(§1) Selectivity of α-substituted Hydrazides: Calpain I and II were assayed as described in Example 1. One to 2 ng papain (papaya latex, Sigma, P3125), 1.25 μg trypsin (bovine pancreas, Sigma, T8003), 5 μg thermolysin (Bacillus thermoproteolyticus, Sigma, P1512) were assayed using 0.5 mg/mL casein as substrate in the microplate format (250 μL reaction volume), essentially a described by Buroker-Kilgore, M. and Wang K K W, Anal Biochem 1993;208: 387-392. Cathepsin B (0.002 unit, bovine spleen) was assayed with 50 mM MES (pH 5.5), 100 μM carbobenzoxy-Arg-Arg-4-methoxy-beta-naphthlamide (Cbz-Arg-Arg-MNA), inhibitor, and 2 mM DTT in 200 μL for 60 minutes at room temperature. Fifty-microliter aliquots were transferred to a fluorescence-compatible plate and then read with a Perkin-Elmer fluorometer LS-50B (excitation 340 nm and emission 425 nm). Calcineurin (bovine brain, Sigma) (5 μg, 0.8 unit) was assayed with 10 mM p-nitrophenyl phosphate in 1 mM DTT, 1 mM CaCl2, 1 mM MnCl2, […] calmodulin (CaM, if added), and 50 mM Tris-HCl (pH 7.4) at 25° C. for 60 minutes or more. Production of p-nitrophenol was monitored at 405 nm. Inhibition of these proteases are presented as IC50.

In the next experiment the target is T2, Human Calpain I (Homo sapiens, UniProt P07384).
T2 construct: Calpain I was purified from human erythrocytes; from tissue; host or cells: human erythrocytes
T2 sequence (P07384 1-714): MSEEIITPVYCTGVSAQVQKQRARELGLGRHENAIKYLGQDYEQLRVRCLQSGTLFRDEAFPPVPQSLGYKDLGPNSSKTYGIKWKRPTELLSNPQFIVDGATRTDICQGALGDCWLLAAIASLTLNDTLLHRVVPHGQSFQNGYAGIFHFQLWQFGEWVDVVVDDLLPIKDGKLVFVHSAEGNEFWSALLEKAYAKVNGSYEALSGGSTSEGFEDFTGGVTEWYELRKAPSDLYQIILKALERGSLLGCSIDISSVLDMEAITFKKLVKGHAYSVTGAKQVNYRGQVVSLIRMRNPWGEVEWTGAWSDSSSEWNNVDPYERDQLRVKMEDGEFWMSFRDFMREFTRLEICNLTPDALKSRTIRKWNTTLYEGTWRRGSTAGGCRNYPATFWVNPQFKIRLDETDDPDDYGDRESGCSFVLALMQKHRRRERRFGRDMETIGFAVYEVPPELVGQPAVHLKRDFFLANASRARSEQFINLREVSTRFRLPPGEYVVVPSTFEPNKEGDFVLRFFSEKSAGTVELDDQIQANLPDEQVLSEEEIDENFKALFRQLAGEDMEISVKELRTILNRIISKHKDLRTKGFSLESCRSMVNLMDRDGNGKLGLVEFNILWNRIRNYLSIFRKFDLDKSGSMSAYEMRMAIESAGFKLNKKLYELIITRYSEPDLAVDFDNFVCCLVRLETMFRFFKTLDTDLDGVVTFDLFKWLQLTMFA
T2 sequence (P04632 1-268 partner): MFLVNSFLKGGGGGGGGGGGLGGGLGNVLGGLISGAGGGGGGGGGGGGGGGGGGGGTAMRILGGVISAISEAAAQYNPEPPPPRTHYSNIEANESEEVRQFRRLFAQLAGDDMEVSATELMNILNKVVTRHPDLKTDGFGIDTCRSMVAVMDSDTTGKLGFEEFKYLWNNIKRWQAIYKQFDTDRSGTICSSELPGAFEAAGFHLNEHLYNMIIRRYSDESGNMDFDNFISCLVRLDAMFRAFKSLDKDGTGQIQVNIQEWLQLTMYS
The experiment in a line: Calpain I activity, casein substrate, Coomassie microplate assay. Format: biochemical. How it is done: Assay of calpain activity: Calpain I was purified from human erythrocytes as described by Wang K K W, Roufogalis B D, and Villalobo A, Arch Biochem Biophys 1988;267: 317-327. Calpain activity was assayed in a 96-well microplate format (Buroker-Kilgore M and Wang K K W, Anal Bio Chem 1993;208: 387-392). In 250 μL of reaction mixture, substrate casein (0.5 mg/mL) was incubated with 0.01 unit (80-120 ng) calpain I, 20 mM dithiothreitol (DTT), 50 mM Tris-HCl (pH 7.4 at 25° C.) and 4 mM CaCl2 at 25° C. for 60 minutes. Two 100-μL aliquots were taken for Coomassie blue G250 binding analysis to quantify the remaining casein.
Compound concentrations that cause 50% inhibition (IC50) are as shown (Table I). The second rate of inactivation of calpain I for 2 compounds are also shown.
as §1

In experiment [2] the test system is Purkinje cells in cerebellar slices. The experiment in a line: AMPA toxicity to Purkinje cells in cerebellar slices. Format: cell-based, rat. Conditions: 100 μM compound. How it is done:
(ii) Neuroprotective effects of the compound of Example 5 against AMPA toxicity to Purkinje cells in cerebellar Slices: Cerebellar slices were acutely isolated from adult rats and maintained in an oxygenated bath for the duration of the experiment as described elsewhere (Caner, et al., Brain Research 1993;607: 354-356). Example 5 (100 μM) was added to the ACSF (124 mM NaCl, 3.3 mM KCl, 2 mM CaCl2, 25.7 mM NaHCO3, 2.4 mM MgSO4, 1.25 mM KH2 PO4, 10 mM glucose) 60 minutes before the addition of amino-3-hydroxy-5-methyl-4-isoxazole propionic acid (AMPA; 30 μM for 30 minutes). The slices were then allowed to recover in normal ACSF for an additional 90 minutes. Histological damage to Purkinje cells was identified and quantified as described in detail elsewhere (Caner, et al., Brain Research 1993;607: 354-356).

On to `O=C(CCl)NN=c1[nH]c2ccccc2n(-c2ccccc2)c1=O` [Example 5, 2-Chloro-acetic acid (3-oxo-4-phenyl-3,4-dihydro-1H-quinoxalin-2-ylidene)-hydrazide], for which the IC50 in experiment [1] was 25 µM; on Calmodulin-calcineurin, over 500 µM; at Human Calpain I (casein 0.5 mg/mL, pH 7.4, 25° C., 60 minutes (Table I)), 0.364 µM. In addition, the “Ki/[I] Calpain I (second rate of inactivation)” value at Human Calpain I was found to be 109 M⁻¹ s⁻¹. For the same molecule, in experiment [2] (AMPA 30 μM), the AMPA-induced neurotoxicity entry is listed as “can be ameliorated”. The viability at 100 µM in experiment [2] (Rattus norvegicus, purkinje, 0.5 h, AMPA 30 μM for 30 minutes, mean ± SEM (10), p < 0.005 vs AMPA alone (13.41 ± 2.34), Control 94.41 ± 0.97, read-out: % Live Purkinje Neurons) was found to be 51 ± 4.8%.
